Patent US12391737B2, “Soluble NPY2 receptor agonists” (Boehringer Ingelheim International GmbH, priority 2020, dated 2025)

How the values were obtained:
[1] = biological target: T1, Human Neuropeptide Y2 Receptor (Homo sapiens, UniProt P49146); test: Radioligand binding competition assay (RLB); conditions: Table 3, 125I-PYY(1-36) competition; read-out: Ki
T1 construct: purchased CHEMICON HTS066M
T1 sequence (P49146 1-381): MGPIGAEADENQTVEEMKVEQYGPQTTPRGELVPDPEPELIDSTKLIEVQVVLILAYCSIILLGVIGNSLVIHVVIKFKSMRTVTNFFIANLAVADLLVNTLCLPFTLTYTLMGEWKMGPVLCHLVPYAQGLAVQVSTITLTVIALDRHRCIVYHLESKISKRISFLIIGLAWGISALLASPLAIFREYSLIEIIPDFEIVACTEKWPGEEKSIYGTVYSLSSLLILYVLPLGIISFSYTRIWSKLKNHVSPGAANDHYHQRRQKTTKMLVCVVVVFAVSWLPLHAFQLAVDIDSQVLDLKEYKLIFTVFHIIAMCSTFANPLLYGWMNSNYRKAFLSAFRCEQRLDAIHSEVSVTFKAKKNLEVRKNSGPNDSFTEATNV
In short: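 Receptor membranes, 0.5 μg/well; buffer 50 mM HEPES/5 mM MgCl2/1 mM CaCl2/0.2% ovalbumin, pH 7.4; 2 h RT, shaking. GF/C filtration, cold HEPES/500 mM NaCl wash, scintillation count. IC50 by nonlinear regression.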

Solubility determination = conditions: for Sol6: pH 6; for Sol7: pH 7
In short: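 Shake-flask style: 10 mg/ml peptide (TFA salt), 0.1 M sodium diphosphate pH 6.4/7.0, 600 rpm, 2 h, RT; filter; dilute 1 mg/ml in 50% MeCN; RP-UPLC, 0–100% B over 2 min, 50 °C. Solubility = sample/control area ratio. Final pH recorded.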

SMILES | Ki [1] [nM] | Sol6 (Solubility determination) [mg/mL] | Sol7 (Solubility determination) [mg/mL]
CC(C)CC(=O)N[C@@H](C)C(=O)N1CCC[C@H]1C(=O)N[C@@H](C)C(=O)N[C@@H](CCCCNC(=O)CCCCCNC(=O)CC[C@H](NC(=O)CCCCCCCCCCCCCCCCC(=O)O)C(=O)O)C(=O)N1CCC[C@H]1C(=O)N[C@@H](CCC(=O)O)C(=O)N[C@@H](CCC(=O)O)C(=O)N[C@@H](CC(=O)O)C(=O)N[C@@H](C)C(=O)N[C@@H](CO)C(=O)N1CCC[C@H]1C(=O)N[C@@H](CCC(=O)O)C(=O)N[C@@H](CCC(=O)O)C(=O)N[C@@H](CC(C)C)C(=O)N[C@@H](CCC(N)=O)C(=O)N[C@@H](CCCNC(=N)N)C(=O)N[C@@H](Cc1ccc(O)cc1)C(=O)N[C@@H](Cc1ccc(O)cc1)C(=O)N[C@H](C(=O)N[C@@H](CCC(=O)O)C(=O)N[C@@H](CC(C)C)C(=O)N[C@@H](CCCNC(=N)N)C(=O)N[C@@H](Cc1c[nH]cn1)C(=O)N[C@@H](Cc1ccc(O)cc1)C(=O)N[C@@H](Cc1ccc(O)cc1)C(=O)N[C@@H](CC(N)=O)C(=O)N[C@@H](Cc1c[nH]c2ccccc12)C(=O)N[C@@H](CC(C)C)C(=O)N[C@H](C(=O)N[C@@H](CCCNC(=N)N)C(=O)N[C@@H](CCC(N)=O)C(=O)N[C@@H](CCCNC(=N)N)C(=O)N[C@@H](Cc1ccc(O)cc1)C(N)=O)[C@@H](C)O)C(C)C [Compound 166, N{alpha-4}-(3-methylbutanoyl)-N{epsilon-7}-(6-[(4S)-4-carboxy-4-(17-carboxyheptadecanamido)butanamido]hexanoyl)-[4A,6A,7K,9E,18Q,22V,23E,28Y,30W,31L]-hPYY(4-36)] | 2.05 | 9.2 | 9.7
CC[C@H](C)[C@H](NC(=O)[C@H](CCC(=O)O)NC(=O)[C@H](CCC(=O)O)NC(=O)[C@@H]1CCCN1C(=O)[C@H](CCC(=O)O)NC(=O)[C@H](C)NC(=O)[C@H](C)NC(=O)[C@H](CCC(=O)O)NC(=O)[C@H](CCC(=O)O)NC(=O)[C@@H]1CCCN1C(=O)[C@H](CCCCNC(=O)CCCCCNC(=O)CC[C@H](NC(=O)CCCCCCCCCCCCCCCCC(=O)O)C(=O)O)NC(=O)[C@H](C)NC(=O)[C@@H]1CCCN1C(=O)[C@H](C)NC(=O)CC(C)C)C(=O)N[C@@H](CCC(N)=O)C(=O)N[C@@H](CCCNC(=N)N)C(=O)N[C@@H](Cc1ccc(O)cc1)C(=O)N[C@@H](Cc1ccc(O)cc1)C(=O)N[C@H](C(=O)N[C@@H](C)C(=O)N[C@@H](CC(C)C)C(=O)N[C@@H](CCCNC(=N)N)C(=O)N[C@@H](Cc1c[nH]cn1)C(=O)N[C@@H](Cc1ccc(O)cc1)C(=O)N[C@@H](Cc1ccc(O)cc1)C(=O)N[C@@H](CC(N)=O)C(=O)N[C@@H](Cc1c[nH]c2ccccc12)C(=O)N[C@@H](CC(C)C)C(=O)N[C@H](C(=O)N[C@@H](CCCNC(=N)N)C(=O)N[C@@H](CCC(N)=O)C(=O)N[C@@H](CCCNC(=N)N)C(=O)N[C@@H](Cc1ccc(O)cc1)C(N)=O)[C@@H](C)O)C(C)C [Compound 167, N{alpha-4}-(3-methylbutanoyl)-N{epsilon-7}-(6-[(4S)-4-carboxy-4-(17-carboxyheptadecanamido)butanamido]hexanoyl)-[4A,6A,7K,9E,11A,13E,17I,18Q,22V,23A,28Y,30W,31L]-hPYY(4-36)] | 4.58 | 0.0 | 9.5
CC(C)CC(=O)N[C@@H](C)C(=O)N1CCC[C@H]1C(=O)N[C@@H](CCC(=O)O)C(=O)N[C@@H](CCCCNC(=O)CCCCCNC(=O)CC[C@H](NC(=O)CCCCCCCCCCCCCCCCC(=O)O)C(=O)O)C(=O)N1CCC[C@H]1C(=O)N[C@@H](CCC(=O)O)C(=O)N[C@@H](CCC(=O)O)C(=O)N[C@@H](CC(=O)O)C(=O)N[C@@H](C)C(=O)N[C@@H](CCC(=O)O)C(=O)N1CCC[C@H]1C(=O)N[C@@H](CCC(=O)O)C(=O)N[C@@H](CCC(=O)O)C(=O)N[C@@H](CC(C)C)C(=O)N[C@@H](CCC(N)=O)C(=O)N[C@@H](C)C(=O)N[C@@H](Cc1ccc(O)cc1)C(=O)N[C@@H](Cc1ccc(O)cc1)C(=O)N[C@H](C(=O)N[C@@H](CO)C(=O)N[C@@H](CC(C)C)C(=O)N[C@@H](CCCNC(=N)N)C(=O)N[C@@H](Cc1c[nH]cn1)C(=O)N[C@@H](Cc1ccc(O)cc1)C(=O)N[C@@H](Cc1ccc(O)cc1)C(=O)N[C@@H](CC(N)=O)C(=O)N[C@@H](Cc1c[nH]c2ccccc12)C(=O)N[C@@H](CC(C)C)C(=O)N[C@H](C(=O)N[C@@H](CCCNC(=N)N)C(=O)N[C@@H](CCC(N)=O)C(=O)N[C@@H](CCCNC(=N)N)C(=O)N[C@@H](Cc1ccc(O)cc1)C(N)=O)[C@@H](C)O)C(C)C [Compound 169, N{alpha-4}-(3-methylbutanoyl)-N{epsilon-7}-(6-[(4S)-4-carboxy-4-(17-carboxyheptadecanamido)butanamido]hexanoyl)-[4A,7K,9E,13E,18Q,19A,22V,28Y,30W,31L]-hPYY(4-36)] | 5.82 | 9.7 | 9.8
CC[C@H](C)[C@H](NC(=O)[C@H](CCC(=O)O)NC(=O)[C@H](CCC(=O)O)NC(=O)[C@@H]1CCCN1C(=O)[C@H](C)NC(=O)[C@H](C)NC(=O)[C@H](CC(=O)O)NC(=O)[C@H](CCC(=O)O)NC(=O)[C@H](CCC(=O)O)NC(=O)[C@@H]1CCCN1C(=O)[C@H](CCCCNC(=O)CCCCCNC(=O)CC[C@H](NC(=O)CCCCCCCCCCCCCCCCC(=O)O)C(=O)O)NC(=O)[C@H](CCC(=O)O)NC(=O)[C@@H]1CCCN1C(=O)[C@H](C)NC(=O)CC(C)C)C(=O)N[C@@H](CCC(N)=O)C(=O)N[C@@H](CCCNC(=N)N)C(=O)N[C@@H](Cc1ccc(O)cc1)C(=O)N[C@@H](Cc1ccc(O)cc1)C(=O)N[C@H](C(=O)N[C@@H](CO)C(=O)N[C@@H](CC(C)C)C(=O)N[C@@H](CCCNC(=N)N)C(=O)N[C@@H](Cc1c[nH]cn1)C(=O)N[C@@H](Cc1ccc(O)cc1)C(=O)N[C@@H](Cc1ccc(O)cc1)C(=O)N[C@@H](CC(N)=O)C(=O)N[C@@H](Cc1c[nH]c2ccccc12)C(=O)N[C@@H](CC(C)C)C(=O)N[C@H](C(=O)N[C@@H](CCCNC(=N)N)C(=O)N[C@@H](CCC(N)=O)C(=O)N[C@@H](CCCNC(=N)N)C(=O)N[C@@H](Cc1ccc(O)cc1)C(N)=O)[C@@H](C)O)C(C)C [Compound 170, N{alpha-4}-(3-methylbutanoyl)-N{epsilon-7}-(6-[(4S)-4-carboxy-4-(17-carboxyheptadecanamido)butanamido]hexanoyl)-[4A,7K,9E,13A,17I,18Q,22V,28Y,30W,31L]-hPYY(4-36)] | 2.28 | >10.0 | 10.0
